Values quoted from earlier work, collected in patent US20050142195A1, “Stable pharmaceutical compositions without a stabilizer” (priority 2002, published 2005).
Read-outs that look alike come from different tables or passages of the source.

stability in mixture with lubricant (in the presence of magnesium stearate or stearic acid): poor | stability in mixture with lubricant (in the presence of talc): stable
SMILES: CC(NC(C)(C)C)C(=O)c1cccc(Cl)c1.Cl (racemic) [bupropion, (±)-1-(3-chlorophenyl)-2-[(1,1-dimethylethyl)amino]-1-propanone hydrochloride]
